This passage reports TGI and GI50 results from PubChem BioAssay (NCI).

What all share (assay): inhibition of tumour cell growth, NCI panel, 48 h
Assay [1] has as its system SK-MEL-28 melanoma.
For assay [2], the system named is SN12C renal.
Assay [3] deals with SK-MEL-5 melanoma.
In assay [4] the test system is LOX IMVI melanoma.
Assay [5] concerns 786-0 renal.
Assay [6] relates to SK-MEL-2 melanoma.
Assay [7] has as its system OVCAR-3 ovarian.
The subject of assay [8] is SW-620 colon.
Assay [9] deals with SF-268 CNS.

Structures are written as SMILES. “And” between values parts separate entries of the source, which are not always exact repeats. Equal entries are not always repeated.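 These data come from cells grown in 96-well plates and exposed to compound for 48 hours at five concentrations. Here, GI50 denotes the concentration required for 50% inhibition of growth. TGI: concentration producing complete growth inhibition.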

Consider `CC(=O)OC1=C2CC[C@@H]3C(CC[C@@]4(C)C3CC[C@@H]4OC(C)=O)[C@@]2(C)CC(C#N)C1=O` (some centres not stated), for which the TGI was > 100 µM in assay [1]; > 100 µM in [2]; 49.4 µM in assay [3]; > 100 µM in [4]; > 100 µM in [5]; 59.4 µM in [6]. Also, the values for the TGI in assay [7], in [8] and in assay [9] were 53.3 µM, > 100 µM and > 100 µM, respectively.
As for `Cc1[nH]c2ccccc2c1C1=NO/C(=N\O)C(c2c(C)[nH]c3ccccc23)C1` (configuration not stated), the TGI in assay [1] is > 100 µM; in assay [2] it was > 100 µM; in [3], > 31.6 µM; in [5], > 100 µM; in [6], > 100 µM; in assay [7] it was 70.7 µM. Moreover, the TGI in assay [8] and in assay [9] was > 100 µM throughout.
As for `CN=C1CN=C(OP(=O)(N2CCOCC2)N2CCOCC2)c2cc(Cl)ccc2N1`, the TGI in [1], in assay [2], in assay [3], in [4], in assay [5] and in assay [6] was > 100 µM in each case. The TGI in assay [7] and in assay [8] was > 100 µM in each case.
`COc1cc(/C=C2\NC(=O)C3Cc4c(OC)c(C)c(OC)c(OC)c4C2N3C)c(OC)c(C)c1OC` (configuration not stated): the TGI in [1], in assay [2], in assay [3], in assay [4], in [5] and in assay [7] was > 100 µM in each case. The TGI in assay [9] is > 100 µM.
`CCOC(=O)CNC(=O)OCc1ccccc1`: the TGI in assay [1], in [2], in assay [4], in assay [5], in assay [6] and in assay [7] was > 100 µM in each case. Besides, the TGI in assay [8] and in assay [9] was > 100 µM in each case.
For the compound `[Co].[O-]c1cccnc1C=Nc1ccccc1.[OH3+]`, the GI50 in [1] was 82.6 µM; in assay [2], > 100 µM; in assay [3], > 100 µM; in [4], > 100 µM; in [5] it was > 100 µM; in [6], > 100 µM. Moreover, the GI50 in assay [7] was > 100 µM; in assay [8] it was > 100 µM; in assay [9], 99.3 µM. Also, the TGI in assay [1], in assay [2], in assay [3], in [4], in assay [5] and in assay [6] was > 100 µM throughout. In addition, the TGI in [7], in [8] and in assay [9] was > 100 µM in each case.
`Cc1ccc(/C=N/NS(=O)(=O)c2ccccc2)cc1C`: the TGI in assay [1], in assay [2], in assay [3], in [4], in [5] and in [6] was > 100 µM in each case. For the same compound, the TGI in [7], in assay [8] and in [9] was > 100 µM throughout.
Regarding `CCOC(=O)c1c(-c2ccc(OC)c(O)c2)c(C#N)c(=S)n(C2OC(COC(C)=O)C(OC(C)=O)C(OC(C)=O)C2OC(C)=O)c1-c1ccccc1` (configuration not stated), the GI50 in assay [1] was 32.5 µM and > 100 µM; in [2] it was 33.8 µM and > 100 µM; in assay [3] it was 15.5 µM and > 100 µM; in [4], 34.8 µM and > 100 µM; in assay [5], 35.1 µM and > 100 µM; in [7], 20.9 µM and > 100 µM. For the same compound, the GI50 in [9] was 34 µM and > 100 µM. Further, the TGI in assay [1] is > 100 µM; in [2], > 100 µM; in assay [3] it was 33.4 µM and > 100 µM; in assay [4], > 100 µM; in assay [5], > 100 µM; in [7], 45.2 µM and > 100 µM. The TGI in assay [8] and in [9] was > 100 µM each time.
As for `C=CCOc1ccc(N)c([N+](=O)[O-])c1`, the TGI in assay [1], in assay [2], in [3], in [4], in assay [5] and in assay [6] was > 100 µM in each case. For the same compound, the TGI in [8] and in assay [9] was > 100 µM throughout.
As for `CC(=O)NCc1c(C(N)=O)ncn1Cc1ccccc1`, the TGI in assay [1], in [2], in [3], in assay [4], in [5] and in assay [7] was > 100 µM in each case. For the same compound, the TGI in assay [8] was > 100 µM.
In the case of `O=C(O)CCSC(=O)Nc1cccc2ccccc12`, the TGI in [1], in assay [2], in assay [3], in assay [4], in [5] and in assay [7] was > 100 µM each time. Further, the TGI in assay [8] and in assay [9] was > 100 µM each time.
Turning to `COc1ccc(-c2oc3c(OC)c(OC)c(OC)c(O)c3c(=O)c2OC)cc1O`, the TGI was > 100 µM in [1]; > 100 µM in [2]; 0.995 µM in [3]; 11.3 µM in assay [5]; 0.221 µM in assay [6]; > 100 µM in assay [8]. The same compound showed a TGI in assay [9] of 2.82 µM. In addition, the GI50 in assay [2], in assay [3], in assay [5], in assay [7], in [8] and in assay [9] was < 0.01 µM throughout.
For the compound `O=[N+]([O-])c1cc(I)cc(/C=N/NS(=O)(=O)c2ccc(Cl)cc2)c1O`, the TGI in [1] is 73.8 µM; in [2], 49.4 µM; in [3], 36.9 µM; in [4] it was 36.5 µM; in assay [5], 42.9 µM; in [6] it was 42.7 µM. For the same compound, the TGI in [7] is 36.1 µM; in assay [8] it was 82.4 µM; in [9] it was 77.4 µM.
